# Reference: patent US20230167155A1, “COMPOSITIONS AND METHODS” (KING'S COLLEGE LONDON, priority 2020, published 2023)
# Legend:
# TNFα, IFNγ, MIF and CCL2 = experiment: Plasma cytokines and chemokines by ELISA; assay type: in vivo, mouse; settings: HFD, weekly IV for 6 weeks, equimolar to PTL060 10 μg/g
# Protocol: Anticoagulated whole blood (EDTA 30 mM pH8) was separated into plasma and cells by centrifugation (14,000 g for 10 mins). Plasma TNFα, IFN-γ, MIF and CCL2 were detected using separate specific ELISA kits (R&D Systems, Abingdon, UK) according to the manufacturers' instructions. Total cholesterol, high-density lipoprotein and low-density lipoprotein were determined using kits from Cell Biolabs, and Tryglycerides with a kit from Abcam, (both Cambridge, UK) according to the manufacturer's protocol. Thrombin clotting times were measured in 3.2% trisodium citrated plasma according to the protocol of Ignjatovic^16. Briefly, 100 μl mouse plasma was incubated with 2.5 U of human thrombin in a total volume of 300 μl (Enzyme Research Laboratories (ERL), Swansea, UK) at 37° C., and the time for a clot to form was measured (n=6 per group). For some experiments plasma was further centrifuged (20,000 g for 10 mins) to minimise the presence of extracellular vesicles.
# FIG. 18: Illustrating the systemic proinflammatory state that accompanies development of atherosclerosis in ApoE^−/− mice fed a high fat diet, and the impact of PTL032 on that inflammation, compared to PTL060 and controls. Cytokines (interferon-gamma TNFalpha) and chemokines (macrophage migration inhibitory factor, MIF and CCL2) measured by ELISA of plasma samples harvested from mice at the times indicated. HFD=high fat diet. […]
# ApoE−/− mice [1] = experiment: Regression of established atheroma, weekly IV injections (Oil Red O en face, aortic root); assay type: in vivo, mouse
# Protocol: For all atherosclerosis work, male ApoE−/− mice, from the age of 6-weeks, were fed with a high fat diet (HFD) consisting 35 kcal % fat, 1.25% cholesterol, and 0.5% cholic acid (Special Diet Services, Essex UK). Aortas were transplanted 2 weeks after starting the HFD, using a sleeve anastomosis technique described previously^11. Briefly, a 5 mm of the segment of the infrarenal donor aorta, flushed with 300 μl of saline containing 50 U of heparin, was transplanted into ApoE−/− recipient abdomen aortas (N=6 per group). Blood flow was confirmed by direct inspection after removal of the clamps. Mice were fed a HFD for 6-12 weeks post-transplantation before the experiment was terminated (Suppl FIG. 1A). To assess prevention of atheroma, mice (n=6 per group) received a single injection of PTL060 or controls by tail vein, and the experiments terminated 1-3 weeks later (Suppl FIG. 1B). For regression experiments, baseline groups (n=6) were fed a HFD to the age of 22 weeks before the mice were sacrificed. Experimental or control groups (n=3-6 per group) received weekly injections by tail vein for 3-6 weeks, beginning at age of 22 weeks before the experiments were terminated when mice were 25-28 weeks old (Suppl FIG. 1C).
# Atherosclerotic lesions were evaluated as previously described^11. Simply, the entire length of the aorta was perfused with PBS, dissected using a dissecting microscope, longitudinally opened and stained with Oil Red O (ORO) solution (Sigma, UK) for 30 minutes, before being photographed with a digital camera (DSC-W320, Sony, Japan). The total aortic area and lesional area were measured by using Image J. Aortas from every animal were assessed. To assess lesions in the aortic sinus, hearts were embedded in paraffin, sectioned through the aortic root and incubated with elastin/van Gieson stain using the Accustain™ Elastin Stain kit (Sigma). Sections were examined on an Olympus U-ULH optical microscope (Olympus Optical Co. Ltd, Tokyo, Japan). Atheromatous lesional and total aortic root area was determined using Image-Pro Plus TM software version 4.0 (Media Cybernetics, Silver Spring, USA). At least three random sections were examined from each mouse in all groups.
# ApoE−/− mice [2] = settings: 22 week old animals, daily treatment for 6 weeks, clinically relevant doses; cited from earlier work
# [3] = system: patients with stable atherosclerotic cardiovascular disease; settings: addition to aspirin; cited from earlier work
# PAR1 = target: T1, PAR1 (Homo sapiens, UniProt P25116); set-up: host or cells: patients; settings: patients with stable atherosclerosis; cited from earlier work
# T1 sequence (P25116 22-425): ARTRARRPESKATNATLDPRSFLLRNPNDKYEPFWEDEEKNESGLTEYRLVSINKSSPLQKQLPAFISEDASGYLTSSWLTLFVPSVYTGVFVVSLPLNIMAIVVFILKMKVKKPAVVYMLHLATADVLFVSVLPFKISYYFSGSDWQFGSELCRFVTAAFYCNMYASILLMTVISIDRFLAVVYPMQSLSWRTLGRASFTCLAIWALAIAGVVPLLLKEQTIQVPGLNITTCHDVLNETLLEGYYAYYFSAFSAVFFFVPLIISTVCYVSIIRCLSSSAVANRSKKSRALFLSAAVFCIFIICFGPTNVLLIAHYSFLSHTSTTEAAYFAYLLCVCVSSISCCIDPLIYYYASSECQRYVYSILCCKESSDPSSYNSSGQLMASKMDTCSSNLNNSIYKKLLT
# MIF = experiment: Vessel wall chemokine (MIF, CCL2) expression after IV injection, immunofluorescence; assay type: in vivo, mouse; settings: single IV injection, PTL060 or equimolar dose
# Protocol: Immunohistology of frozen cross sections were prepared and examined as previously described^11. Briefly, isolated tissues were snap-frozen and embedded in OCT compound (VWR International, Dorset, UK), sectioned at 5 μm thickness and fixed in methanol at −20° C. Frozen sections were immersed in 1% bovine serum albumin-phosphate-buffered saline (BSA-PBS) for 30 minutes and then incubated overnight at 4° C. with one or more of the following antibodies: rabbit polyclonal antibody to CD68, iNOs, CD206, TNFα, MIF, CCR7 ABCA1 (all from Abcam, Cambridge, UK), or hirudin (Biobyt, Cambridge, UK) or CCL2 (Lifespan BioScience, Inc., WA 98121, USA); goat polyclonal antibody to CD31 (Santa Cruz Biotechnology, Texas 75220, USA); rat anti-mouse CD68, CD11b (Serotec, Oxford, United Kingdom), CD31, IFNγ (BD Bioscience Pharmingen, Oxford, United Kingdom), Ly-6G (BioLegend, London, UK), IL-10 (Abcam) or biotinylated anti-HLL (RICS-2)^14; mouse anti-CCR2 (Abcam). […] Quantification of staining was achieved by expressing the area of positive staining as a ratio of the total lesion area, calculated using Image-Pro Plus TM, version 4.0. All quantification was performed by members of the team blinded to the identity of the sections. […] To detect macrophage-derived foam cells, frozen sections of aortic sinus were analysed by a combination of ORO staining and CD68 immunostaining. […]
compound,measurement,setting,value
[Myr2]-KSSKSPSKKDDKKPGDC(S—S—CH2-CH2-Phe-Cha-Cha-Arg-Lys-Pro-Asn-Asp-Lys-NH2)NH2 [PTL032],"plasma chemokines and cytokines (IFNγ, TNFα, MIF, CCL2)","TNFα, IFNγ, MIF and CCL2","suppression of important chemokines and cytokines, almost back to levels seen in very young mice"
same,animals with atherosclerotic plaques essentially completely eliminated,"ApoE−/− mice [1]; HFD 16 weeks, then PTL032 7 μg/g weekly IV for 6 weeks",4 out of the 6
same,regression of atherosclerosis in direct comparison with PTL060,"ApoE−/− mice [1]; equimolar doses (PTL032 7 μg/g, PTL060 10 μg/g), weekly IV 6 weeks",considerably better regression of atherosclerosis than PTL060
O=C(NC[C@H]1CN(c2ccc(N3CCOCC3=O)cc2)C(=O)O1)c1ccc(Cl)s1 [rivaroxaban],atheroma burden reduced by,ApoE−/− mice [2],25%
same,"deaths, strokes and myocardial infarction",[3],"fewer deaths, strokes and myocardial infarction"
CCOC(=O)N[C@@H]1CC[C@@H]2[C@@H](C1)C[C@H]1C(=O)O[C@H](C)[C@H]1[C@H]2/C=C/c1ccc(-c2cccc(F)c2)cn1 [vorapaxar],risk of myocardial infarction,PAR1,reduce the risk of myocardial infarction
bivalirudin,suppression of vessel wall chemokine (MIF) expression,MIF,not
same,atheroma burden after weekly injections,"ApoE−/− mice [1]; HFD from age 6 to 22 weeks, then weekly IV for 6 weeks, PTL060 10 μg/g or equimolar doses of controls",developed increasing atheroma burden equivalent to that seen in saline control mice
